According to paper PMC8401042, “Non-Toxic Dimeric Peptides Derived from the Bothropstoxin-I Are Potent SARS-CoV-2 and Papain-like Protease Inhibitors” (Molecules, 2021):
Like-named read-outs stand apart in the source and are kept apart here. Bridge positions count the residues as written; N and C are the ends. Square brackets hold non-standard residues; d marks the D form. Peptide text beside a SMILES is read from it. I, II: the chains in the order shown.

Tests used:
SARS-CoV-2 PLpro [1] = target: T1, SARS-CoV-2 PLpro (Severe acute respiratory syndrome coronavirus 2, UniProt P0DTD1); assay: SARS-CoV-2 PLpro FRET enzyme inhibition assay; assay type: biochemical; details: for inhibition at 10 µM: 10 µM peptide, 27 µM substrate, 37 °C
SARS-CoV-2 PLpro [2] = target: T1, SARS-CoV-2 PLpro; assay: Microscale thermophoresis (MST) binding assay; details: 100 nM labelled PLpro, peptides 0.015 to 500 µM, 50 mM HEPES pH 7.5, 100 mM NaCl, 2 mM DTT, DMSO 5%; triplicate, Hill fit
SARS-CoV-2 = details: for SARS-CoV-2 % of inhibition at 100 µM: 24 h
[3] = 70 nM enzyme, 27 µM FRET substrate, 50 mM HEPES pH 7.5, 0.01% Triton X-100, 5 mM DTT, 30 min pre-incubation at 37 °C, Hill fit, two independent experiments, read-out: IC50 against PLpro
[4] = calculated from IC50 values, Figure 3A, read-out: pIC50 (−logIC50), PLpro (converted)

Structure (SMILES)	IC50 (SARS-CoV-2 PLpro [1]; [3]) [nM]	inhibition at 10 µM (SARS-CoV-2 PLpro [1]; 70 nM enzyme) [%]	Kd (SARS-CoV-2 PLpro [2]) [nM]	SARS-CoV-2 % of inhibition at 100 µM (SARS-CoV-2) [%]	IC50 (SARS-CoV-2 PLpro [1]; [4]) [nM]	SI = selectivity index (CC50/EC50) (SARS-CoV-2; CC50/EC50 in Vero cells)
CC(C)C[C@H](NC(=O)[C@H](Cc1c[nH]cn1)NC(=O)[C@H](Cc1ccc(O)cc1)NC(=O)[C@H](C)NC(=O)[C@H](Cc1ccc(O)cc1)NC(=O)[C@H](CCCCN)NC(=O)[C@@H](N)CCCCN)C(=O)N[C@@H](CCCCN)C(=O)N1CCC[C@H]1C(=O)N[C@@H](Cc1ccccc1)C(=O)NCCCC[C@H](NC(=O)[C@H](Cc1ccccc1)NC(=O)[C@@H]1CCCN1C(=O)[C@H](CCCCN)NC(=O)[C@H](CC(C)C)NC(=O)[C@H](Cc1c[nH]cn1)NC(=O)[C@H](Cc1ccc(O)cc1)NC(=O)[C@H](C)NC(=O)[C@H](Cc1ccc(O)cc1)NC(=O)[C@H](CCCCN)NC(=O)[C@@H](N)CCCCN)C(N)=O [A4] (I: H-KKYAYHLKPFK-NH2 / II: H-KKYAYHLKPF; amide I:11-II:C)	2000 ± 30	97	3000 ± 1000	10		
CC(C)C[C@H](NC(=O)[C@H](Cc1c[nH]cn1)NC(=O)[C@H](Cc1ccc(O)cc1)NC(=O)[C@H](CCCNC(=N)N)NC(=O)[C@H](C)NC(=O)[C@H](CCCCN)NC(=O)[C@@H](N)CCCCN)C(=O)N[C@@H](CCCCN)C(=O)N1CCC[C@H]1C(=O)N[C@@H](Cc1ccccc1)C(=O)NCCCC[C@H](NC(=O)[C@H](Cc1ccccc1)NC(=O)[C@@H]1CCCN1C(=O)[C@H](CCCCN)NC(=O)[C@H](CC(C)C)NC(=O)[C@H](Cc1c[nH]cn1)NC(=O)[C@H](Cc1ccc(O)cc1)NC(=O)[C@H](CCCNC(=N)N)NC(=O)[C@H](C)NC(=O)[C@H](CCCCN)NC(=O)[C@@H](N)CCCCN)C(N)=O [A3] (I: H-KKARYHLKPFK-NH2 / II: H-KKARYHLKPF; amide I:11-II:C)	1000 ± 30	95	6000 ± 4000			
CC(C)C[C@H](NC(=O)[C@H](Cc1c[nH]cn1)NC(=O)[C@H](Cc1ccc(O)cc1)NC(=O)[C@H](CCCNC(=N)N)NC(=O)[C@H](Cc1ccc(O)cc1)NC(=O)[C@H](C)NC(=O)[C@@H](N)CCCCN)C(=O)N[C@@H](CCCCN)C(=O)N1CCC[C@H]1C(=O)N[C@@H](Cc1ccccc1)C(=O)NCCCC[C@H](NC(=O)[C@H](Cc1ccccc1)NC(=O)[C@@H]1CCCN1C(=O)[C@H](CCCCN)NC(=O)[C@H](CC(C)C)NC(=O)[C@H](Cc1c[nH]cn1)NC(=O)[C@H](Cc1ccc(O)cc1)NC(=O)[C@H](CCCNC(=N)N)NC(=O)[C@H](Cc1ccc(O)cc1)NC(=O)[C@H](C)NC(=O)[C@@H](N)CCCCN)C(N)=O [A2] (I: H-KAYRYHLKPFK-NH2 / II: H-KAYRYHLKPF; amide I:11-II:C)	2400 ± 30	99	7000 ± 3000	10		
CC[C@H](C)[C@H](N)C(=O)N[C@@H](Cc1ccccc1)C(=O)NCC(=O)N[C@@H](C)C(=O)N[C@H](C(=O)N[C@@H](CC(C)C)C(=O)N1CCC[C@H]1C(=O)N[C@@H](CC(C)C)C(=O)N[C@@H](C)C(=O)N[C@@H](CC(C)C)C(=O)NCC(=O)N[C@@H](C)C(=O)N[C@@H](CC(C)C)C(=O)N[C@@H](CCCCN)C(=O)N[C@@H](CC(N)=O)C(=O)N[C@@H](CC(C)C)C(=O)N[C@H](C(=O)N[C@@H](CCCCN)C(N)=O)[C@@H](C)CC)[C@@H](C)CC [Hy-a1, Hylin a1, reference compound] (H-IFGAILPLALGALKNLIK-NH2; N-terminus and C-terminus assumed)		13		59		
CC(C)C[C@H](NC(=O)[C@H](Cc1c[nH]cn1)NC(=O)[C@H](Cc1ccc(O)cc1)NC(=O)[C@H](CCCNC(=N)N)NC(=O)[C@H](Cc1ccc(O)cc1)NC(=O)[C@H](CCCCN)NC(=O)[C@@H](N)CCCCN)C(=O)N[C@@H](C)C(=O)N1CCC[C@H]1C(=O)N[C@@H](Cc1ccccc1)C(=O)NCCCC[C@H](NC(=O)[C@H](Cc1ccccc1)NC(=O)[C@@H]1CCCN1C(=O)[C@H](C)NC(=O)[C@H](CC(C)C)NC(=O)[C@H](Cc1c[nH]cn1)NC(=O)[C@H](Cc1ccc(O)cc1)NC(=O)[C@H](CCCNC(=N)N)NC(=O)[C@H](Cc1ccc(O)cc1)NC(=O)[C@H](CCCCN)NC(=O)[C@@H](N)CCCCN)C(N)=O [A8] (I: H-KKYRYHLAPFK-NH2 / II: H-KKYRYHLAPF; amide I:11-II:C)		99			2400	
CC(C)C[C@H](NC(=O)[C@H](Cc1c[nH]cn1)NC(=O)[C@H](Cc1ccc(O)cc1)NC(=O)[C@H](CCCNC(=N)N)NC(=O)[C@H](Cc1ccc(O)cc1)NC(=O)[C@H](CCCCN)NC(=O)[C@H](C)N)C(=O)N[C@@H](CCCCN)C(=O)N1CCC[C@H]1C(=O)N[C@@H](Cc1ccccc1)C(=O)NCCCC[C@H](NC(=O)[C@H](Cc1ccccc1)NC(=O)[C@@H]1CCCN1C(=O)[C@H](CCCCN)NC(=O)[C@H](CC(C)C)NC(=O)[C@H](Cc1c[nH]cn1)NC(=O)[C@H](Cc1ccc(O)cc1)NC(=O)[C@H](CCCNC(=N)N)NC(=O)[C@H](Cc1ccc(O)cc1)NC(=O)[C@H](CCCCN)NC(=O)[C@H](C)N)C(N)=O [A1] (I: H-AKYRYHLKPFK-NH2 / II: H-AKYRYHLKPF; amide I:11-II:C)	3500 ± 100	97	6000 ± 3000	4		
CC(C)C[C@H](NC(=O)[C@H](C)NC(=O)[C@H](Cc1ccc(O)cc1)NC(=O)[C@H](CCCNC(=N)N)NC(=O)[C@H](Cc1ccc(O)cc1)NC(=O)[C@H](CCCCN)NC(=O)[C@@H](N)CCCCN)C(=O)N[C@@H](CCCCN)C(=O)N1CCC[C@H]1C(=O)N[C@@H](Cc1ccccc1)C(=O)NCCCC[C@H](NC(=O)[C@H](Cc1ccccc1)NC(=O)[C@@H]1CCCN1C(=O)[C@H](CCCCN)NC(=O)[C@H](CC(C)C)NC(=O)[C@H](C)NC(=O)[C@H](Cc1ccc(O)cc1)NC(=O)[C@H](CCCNC(=N)N)NC(=O)[C@H](Cc1ccc(O)cc1)NC(=O)[C@H](CCCCN)NC(=O)[C@@H](N)CCCCN)C(N)=O [A6] (I: H-KKYRYALKPFK-NH2 / II: H-KKYRYALKPF; amide I:11-II:C)	1800 ± 70	97	5000 ± 3000	22		
CC(C)C[C@H](NC(=O)[C@H](Cc1c[nH]cn1)NC(=O)[C@H](C)NC(=O)[C@H](CCCNC(=N)N)NC(=O)[C@H](Cc1ccc(O)cc1)NC(=O)[C@H](CCCCN)NC(=O)[C@@H](N)CCCCN)C(=O)N[C@@H](CCCCN)C(=O)N1CCC[C@H]1C(=O)N[C@@H](Cc1ccccc1)C(=O)NCCCC[C@H](NC(=O)[C@H](Cc1ccccc1)NC(=O)[C@@H]1CCCN1C(=O)[C@H](CCCCN)NC(=O)[C@H](CC(C)C)NC(=O)[C@H](Cc1c[nH]cn1)NC(=O)[C@H](C)NC(=O)[C@H](CCCNC(=N)N)NC(=O)[C@H](Cc1ccc(O)cc1)NC(=O)[C@H](CCCCN)NC(=O)[C@@H](N)CCCCN)C(N)=O [A5] (I: H-KKYRAHLKPFK-NH2 / II: H-KKYRAHLKPF; amide I:11-II:C)	1900 ± 10	95	3000 ± 2000			
CC(C)C[C@@H](NC(=O)[C@@H](Cc1c[nH]cn1)NC(=O)[C@@H](Cc1ccc(O)cc1)NC(=O)[C@@H](CCCNC(=N)N)NC(=O)[C@@H](Cc1ccc(O)cc1)NC(=O)[C@@H](CCCCN)NC(=O)[C@H](N)CCCCN)C(=O)N[C@H](CCCCN)C(=O)N1CCC[C@@H]1C(=O)N[C@H](Cc1ccccc1)C(=O)NCCCC[C@@H](NC(=O)[C@@H](Cc1ccccc1)NC(=O)[C@H]1CCCN1C(=O)[C@@H](CCCCN)NC(=O)[C@@H](CC(C)C)NC(=O)[C@@H](Cc1c[nH]cn1)NC(=O)[C@@H](Cc1ccc(O)cc1)NC(=O)[C@@H](CCCNC(=N)N)NC(=O)[C@@H](Cc1ccc(O)cc1)NC(=O)[C@@H](CCCCN)NC(=O)[C@H](N)CCCCN)C(N)=O [A12] (I: H-[dK][dK][dY][dR][dY][dH][dL][dK][dP][dF][dK]-NH2 / II: H-[dK][dK][dY][dR][dY][dH][dL][dK][dP][dF]; amide I:11-II:C; N-terminus assumed)		96	1600 ± 300	69	1290	
Cc1c(-c2ccc(-c3ccccc3F)cc2)nc2ccc(F)cc2c1C(=O)O [BREQ, brequinar, reference compound]						>25
CC(C)C[C@H](NC(=O)[C@H](Cc1c[nH]cn1)NC(=O)[C@H](Cc1ccc(O)cc1)NC(=O)[C@H](CCCNC(=N)N)NC(=O)[C@H](Cc1ccc(O)cc1)NC(=O)[C@H](CCCCN)NC(=O)[C@@H](N)CCCCN)C(=O)N[C@@H](CCCCN)C(=O)N1CCC[C@H]1C(=O)N[C@@H](Cc1ccccc1)C(=O)NCCCC[C@H](NC(=O)[C@H](Cc1ccccc1)NC(=O)[C@@H]1CCCN1C(=O)[C@H](CCCCN)NC(=O)[C@H](CC(C)C)NC(=O)[C@H](Cc1c[nH]cn1)NC(=O)[C@H](Cc1ccc(O)cc1)NC(=O)[C@H](CCCNC(=N)N)NC(=O)[C@H](Cc1ccc(O)cc1)NC(=O)[C@H](CCCCN)NC(=O)[C@@H](N)CCCCN)C(N)=O [(pBthTX-I)2K, des-Cys^11,Lys^12,Lys^13-(pBthTX-I)2K] (I: H-KKYRYHLKPFK-NH2 / II: H-KKYRYHLKPF; amide I:11-II:C)		98	900 ± 100		2400	
CC(C)C[C@H](NC(=O)[C@H](Cc1c[nH]cn1)NC(=O)[C@H](Cc1ccc(O)cc1)NC(=O)[C@H](CCCNC(=N)N)NC(=O)[C@H](Cc1ccc(O)cc1)NC(=O)[C@H](CCCCN)NC(=O)[C@@H](N)CCCCN)C(=O)N[C@@H](CCCCN)C(=O)N1CCC[C@H]1C(=O)N[C@@H](C)C(=O)NCCCC[C@H](NC(=O)[C@H](C)NC(=O)[C@@H]1CCCN1C(=O)[C@H](CCCCN)NC(=O)[C@H](CC(C)C)NC(=O)[C@H](Cc1c[nH]cn1)NC(=O)[C@H](Cc1ccc(O)cc1)NC(=O)[C@H](CCCNC(=N)N)NC(=O)[C@H](Cc1ccc(O)cc1)NC(=O)[C@H](CCCCN)NC(=O)[C@@H](N)CCCCN)C(N)=O [A10] (I: H-KKYRYHLKPAK-NH2 / II: H-KKYRYHLKPA; amide I:11-II:C)	2400 ± 200	98		7		
